Values after ≈ are worked out from the molar mass of the structure shown. Like-named read-outs stand apart in the source and are kept apart here.
Tests used:
[1] = system: Staphylococcus aureus; experiment: In vivo activity against Staphylococcus aureus in an acute lethal mouse model; conditions: mice infected intraperitoneally, dosed one and four hours post-infection, survival on seventh day
Method: Determinations of in vivo efficacy are performed by inoculating mice intraperitoneally with cultures of the infecting organism diluted to produce 100% mortality in control animals within twenty-four hours. The culture of S. aureus used to infect the animals was diluted to the required bacterial density using 5% aqueous hog gastric mucin. The compounds are dissolved or suspended in 0.25% aqueous Methocel® (Methocel®: Hydroxypropyl Methylcellulose, E15 Premium, Dow Chemical Company) for oral administration or sterile distilled water containing 5% dimethylsulfoxide (Fisher Scientific Company, Fairlawn, N.J.) for subcutaneous administration. The mice are dosed at one hour and at four hours post-infection. Mortality is recorded daily until test termination seven days post infection. The number of survivors in each treatment group on the seventh day after infection is used in the calculation of the ED50, the dose of compound that protects 50% of the mice (Litchfield, J. T. and Wildoxon. A simplified method for evaluating dose-effect experiments. J. Pharmacol Exp. Ther., 96:99-113, 1949).

[2] = system: Escherichia coli; experiment: In vitro broth microdilution minimal inhibitory concentration (24-hour MIC), Escherichia coli; format: cell-based; conditions: Mueller-Hinton broth, standard microdilution; for MIC: read-out: Minimum Inhibitory Concentration
Description: (§1) As shown in Table VII compounds of formula I exert an in vitro antibacterial effect.

[3] = system: Staphylococcus aureus; experiment: In vitro broth microdilution minimal inhibitory concentration (24-hour MIC), Staphylococcus aureus; format: cell-based; conditions: Mueller-Hinton broth, standard microdilution; for MIC: read-out: Minimum Inhibitory Concentration
Description: as §1

[4] = Staphylococcus aureus, sc, 168 h, Subcutaneous Administration, read-out: ED50
[5] = Staphylococcus aureus, 168 h, Oral Administration, read-out: ED50

Row | Compound | ED50 [1, 4] [mg/kg] | MIC [2] [µg/mL] | MIC [3] [µg/mL] | ED50 [1, 5] [mg/kg] | ED50 ([1]; Oral Administration, 10080 min) [mg/kg] | ED50 ([1]; Subcutaneous Administration, 10080 min) [mg/kg] | Minimum Inhibitory Concentration [2] [µg/mL] | Minimum Inhibitory Concentration [3] [µg/mL]
1 | COC(=O)/C=C/c1ccc(N2C[C@H](CNC(C)=O)OC2=O)cc1 [Example 59] | > 90 | > 128 | 8 (≈ 25.1 µM) |  |  |  |  | 
2 | COC(=O)/C=C(\C)c1ccc(N2C[C@H](CNC(C)=O)OC2=O)cc1 [Example 58, (l)-N-[3-[4-(E-1-Methyl-2-carbomethoxyethenyl)phenyl]-2-oxooxazolidin-5-ylmethyl]acetamide] | 46.2 | > 128 | 2 (≈ 6.02 µM) |  |  |  |  | 
3 | CC(=O)NC[C@H]1CN(c2ccc(/C=C/C(N)=O)cc2)C(=O)O1 [Example 62] | 20.4 | > 128 | 32 (≈ 105 µM) |  |  |  |  | 
4 | CC(=O)NC[C@H]1CN(c2ccc(C=C(C#N)C#N)cc2)C(=O)O1 [Example 26] | > 90 | > 128 | 16 (≈ 51.6 µM) | > 90 |  |  |  | 
5 | CSC=Cc1ccc(N2CC(CNC(C)=O)OC2=O)cc1 (centres unmarked) [Example 24, (l)-N-[3-[4-(2-Methylsulfenylethenyl)-phenyl]-2-oxooxazolidin-5-ylmethyl]acetamide] |  |  |  |  | 33.3 | 14.6 | > 128 | 8
6 | CC(=O)NC[C@H]1CN(c2ccc(/C(C)=C(/C)C#N)cc2)C(=O)O1 [Example 11] |  | > 128 | 8 (≈ 25.5 µM) |  |  |  |  | 
7 | CC(=O)NC[C@H]1CN(c2ccc(/C(C)=C/C#N)cc2)C(=O)O1 [Example 1, (l)-N-[3-[4-(E-1-Methyl-2-cyanoethenyl)phenyl]-2-oxooxazolidin-5-ylmethyl]acetamide] | 0.8 | > 128 | 1 (≈ 3.34 µM) | 1.3 |  |  |  | 
8 | CC(=O)NCC1CN(c2ccc(/C(=C/C#N)c3ccccc3)cc2)C(=O)O1 (racemic) [Example 5] | > 90 | > 128 | 32 (≈ 88.5 µM) | > 90 |  |  |  | 
9 | CC(=O)NC[C@H]1CN(c2ccc(/C(C)=C/C(N)=O)cc2)C(=O)O1 [Example 23, (l)-N-[3-[4-(E-1-Methyl-2-carbamidoethenyl)phenyl]-2-oxooxazolidin-5-ylmethyl]acetamide] | 36.2 | > 128 | 4 (≈ 12.6 µM) | 26.4 |  |  |  | 
10 | CC(=O)NC[C@H]1CN(c2ccc(/C=C/C(=O)N(C)C)cc2)C(=O)O1 [Example 61] | 39.5 | > 128 | 32 (≈ 96.6 µM) |  |  |  |  | 
11 | CC(=O)NC[C@H]1CN(c2ccc(/C=C(\C)[N+](=O)[O-])cc2)C(=O)O1 [Example 20, (l)-N-[3-[4-(E-2-Nitro-2-methylethenyl)phenyl]-2-oxooxazolidin-5-ylmethyl]acetamide] | 9.1 | > 128 | 0.1 (≈ 0.313 µM) | 14.1 |  |  |  | 
12 | CC(=O)NC[C@H]1CN(c2ccc(C3=CC(=O)CCC3)cc2)C(=O)O1 [Example 68] | 1.7 | > 128 | 0.5 (≈ 1.52 µM) | 2.4 |  |  |  | 
13 | CC(=O)NC[C@H]1CN(c2ccc(/C=C/[N+](=O)[O-])cc2)C(=O)O1 [Example 19, (l)-N-[3-[4-(E-Nitroethenyl)phenyl]-2-oxooxazolidin-5-ylmethyl]acetamide] | > 90 | > 128 | 8 (≈ 26.2 µM) | > 90 |  |  |  | 
14 | CC(=O)NC[C@H]1CN(c2ccc(/C=C/C=O)cc2)C(=O)O1 [Example 25, (l)-N-[3-[4-(E-2-Formylethenyl)phenyl]-2-oxooxazolidin-5-ylmethyl]acetamide] | > 80 | > 128 | 0.5 (≈ 1.73 µM) | > 80 |  |  |  | 

— patent US4977173A, “Aminomethyl oxooxazolidinyl ethenylbenzene derivatives useful as antibacterial agents” (E. I. Du Pont de Nemours and Company, priority 1989, dated 1990)
